Laboratory results published in patent US10227331B2 (priority 2015, dated 2019).
pIC50: −log10 of the molar value. Like-named read-outs stand apart in the source and are kept apart here.

Experiments:
[1] = tested on: P. aeruginosa expressing IMP-1, efflux− (MB9799); experiment: Efflux: concentration of MBL inhibitor which restores susceptibility to imipenem; format: cell-based, Pseudomonas aeruginosa; settings: imipenem at 2 μg/mL, in the presence of a class A, C, D serine β-lactamase inhibitor closely related to relebactam
Source text: (§1) The strain background is Pseudomonas aeruginosa PAO1.

NDM-1 = NDM-1 (Klebsiella pneumoniae, UniProt C7C422); experiment: biochemical; format: biochemical
Method in brief: (§2)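 Semi-log dose-response curves, fitted with a 4-parameter model, gave IC50s. The underlying signal was CCF2-FA fluorescence following 2 hours at 25° C with enzyme, substrate and inhibitor combined.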

IMP-1 = IMP-1 (Serratia marcescens, UniProt P52699); experiment: biochemical; format: biochemical; settings: CCF2-FA substrate, 2 hours at 25° C; read-out: IMP-1 IC50
Method in brief: as §2

[2] = tested on: P. aeruginosa expressing IMP-1, efflux+ (MB9798); format: cell-based, Pseudomonas aeruginosa; settings: for P. aeruginosa expressing IMP-1, efflux+ (MB9798) MITC95: imipenem at 2 μg/mL, in the presence of a class A, C, D serine β-lactamase inhibitor closely related to relebactam; for Efflux ratio: ratio MITC95 PA_9798/MITC95 PA_9799
Source text: as §1

[3] = tested on: Klebsiella pneumoniae expressing VIM-1 (IHMA599644); format: cell-based; settings: with imipenem 1 μg/ml, 95% inhibition of bacterial growth; for Klebsiella pneumoniae MITC95: VIM-1 (IHMA599644)
Method in brief: (§3)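 Restoration of imipenem susceptibility (1 μg/ml imipenem) was judged by absorbance after 22–24 h at 35° C. Test compound was added to bacteria suspended 1:100 in 1.1× CAMHB from overnight blood-agar cultures.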

[4] = tested on: Serratia marcescens expressing IMP-1 (CL5741); format: cell-based; settings: with imipenem 1 μg/ml, 95% inhibition of bacterial growth; for Serratia marcescens MITC95: IMP-1 (CL5741)
Method in brief: as §3

[5] = tested on: Escherichia coli expressing NDM-1 (CLB30005, CLB30016); format: cell-based; settings: with imipenem 1 μg/ml, 95% inhibition of bacterial growth; for Escherichia coli MITC95: NDM-1 (CLB30016)
Method in brief: as §3

VIM-1 = VIM-1 (Pseudomonas aeruginosa (strain ATCC 15692 / DSM 22644 / CIP 104116 / JCM 14847 / LMG 12228 / 1C / PRS 101 / PAO1), UniProt A0A0F7KYQ8); experiment: biochemical; settings: CCF2-FA substrate, 2 hours at 25° C
Method in brief: as §2

[6] = CCF2-FA substrate, 2 hours at 25° C, read-out: NDM-1 IC50

IMP-1, sequence (P52699 whole entry, looked up, species assumed): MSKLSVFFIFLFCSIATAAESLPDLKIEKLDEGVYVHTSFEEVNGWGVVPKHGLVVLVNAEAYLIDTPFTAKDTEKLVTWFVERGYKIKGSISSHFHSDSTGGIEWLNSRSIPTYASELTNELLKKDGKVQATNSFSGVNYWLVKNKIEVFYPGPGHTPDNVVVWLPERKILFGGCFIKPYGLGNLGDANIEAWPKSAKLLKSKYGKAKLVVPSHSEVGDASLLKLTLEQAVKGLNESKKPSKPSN
NDM-1, sequence (C7C422 whole entry, looked up, species assumed): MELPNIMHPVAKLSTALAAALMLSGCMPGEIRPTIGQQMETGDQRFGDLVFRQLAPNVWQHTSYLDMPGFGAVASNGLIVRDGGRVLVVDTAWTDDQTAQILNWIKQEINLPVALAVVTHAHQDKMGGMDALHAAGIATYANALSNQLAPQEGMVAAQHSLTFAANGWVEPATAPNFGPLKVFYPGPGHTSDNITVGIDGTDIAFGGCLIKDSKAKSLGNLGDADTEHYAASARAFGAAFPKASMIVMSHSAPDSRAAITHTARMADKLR

Compound	P. aeruginosa expressing IMP-1, efflux− (MB9799) MITC95 [1] [µM]	pIC50 (NDM-1; [6])	pIC50 (IMP-1)	P. aeruginosa expressing IMP-1, efflux+ (MB9798) MITC95 [2] [µM]	Efflux ratio [2]	Klebsiella pneumoniae expressing VIM-1 (IHMA599644) MITC95 [3] [µM]	Serratia marcescens expressing IMP-1 (CL5741) MITC95 [4] [µM]	Escherichia coli expressing NDM-1 (CLB30016) MITC95 [5] [µM]	pIC50 (VIM-1)	Klebsiella pneumoniae MITC95 [3] [µM]	Serratia marcescens MITC95 [4] [µM]	Escherichia coli MITC95 [5] [µM]	pIC50 (NDM-1)
Nc1nc2cccc(-c3ccc(S(=O)(=O)[C@H]4C[C@H](N)C4)c(S(N)(=O)=O)c3-c3nn[nH]n3)c2[nH]1 [Example 175, 3-(2-amino-3H-benzo[d]imidazol-4-yl)-6-((1r,3r)-3-aminocyclobutylsulfonyl)-2-(2H-tetrazol-5-yl)benzenesulfonamide]	0.7813	9.83	8.66	0.7813	1.00	1.563	1.563	0.7813	9.32				
Nc1nc2c(-c3ccc(S(=O)(=O)CC(N)CO)c(S(N)(=O)=O)c3-c3nn[nH]n3)cccc2s1 (stereo not drawn) [Example 96, 6-(2-amino-3-hydroxypropylsulfonyl)-3-(2-aminobenzo[d]thiazol-4-yl)-2-(2H-tetrazol-5-yl)benzenesulfonamide]	1.563	9.91	9.58	0.7813	0.50	3.125	1.563	1.563	9.73				
Cn1nnc2ccc(-c3ccc(S(=O)(=O)C4CNC4)c(S(N)(=O)=O)c3-c3nnn[nH]3)cc21.O=C(O)C(F)(F)F [Example 119, 3-((4-(1-methyl-1H-benzo[d][1,2,3]triazol-6-yl)-2-sulfamoyl-3-(1H-tetrazol-5-yl)phenyl)sulfonyl)azetidin-1-ium 2,2,2-trifluoroacetate]	1.563	8.74	8.24	100	63.98	6.25	6.25	6.25	9.30				
Nc1nnc(-c2cccc(-c3ccc(S(=O)(=O)C4CNC4)c(S(N)(=O)=O)c3-c3nnn[nH]3)c2)o1 [Example 344, 3′-(5-Amino-1,3,4-oxadiazol-2-yl)-4-(azetidin-3-ylsulfonyl)-2-(1H-tetrazol-5-yl)-[1,1′-biphenyl]-3-sulfonamide]	1.563	9.33	8.77	25	15.99				9.57	6.25	3.125	3.125	
Nc1nc2c(-c3ccc(SC4CNC4)c(S(N)(=O)=O)c3-c3nn[nH]n3)cccc2[nH]1 [Example 2, 3-(2-amino-1H-benzo[d]imidazol-4-yl)-6-(azetidin-3-ylthio)-2-(2H-tetrazol-5-yl)benzenesulfonamide]	1.281	8.65	7.12	6.25	4.88	6.25	1.781	0.5	7.13				
C[C@H](N)CS(=O)(=O)c1ccc(-c2cccc3[nH]c(C(=O)O)nc23)c(-c2nn[nH]n2)c1S(N)(=O)=O [Example 294, 4-(4-((S)-2-aminopropylsulfonyl)-3-sulfamoyl-2-(2H-tetrazol-5-yl)phenyl)-1H-benzo[d]imidazole-2-carboxylic Acid]	1.563	10.08	9.46	1.563	1.00				9.73	3.125	3.125	1.563	
Cc1ccc(-c2ccc(S(=O)(=O)C3CNC3)c(S(N)(=O)=O)c2-c2nn[nH]n2)c2nc(N)[nH]c12 [Example 15, 3-(2-Amino-7-methyl-1H-benzo[d]imidazol-4-yl)-6-(azetidin-3-ylsulfonyl)-2-(2H-tetrazol-5-yl)benzenesulfonamide]	0.3906	10.05	9.21	0.3906	1.00	0.7813	0.3906	0.3906	9.69				
CCCn1c(N)nc2c(-c3ccc(S(=O)(=O)C4CNC4)c(S(N)(=O)=O)c3-c3nn[nH]n3)cccc21 [Example 289, 3-(2-amino-1-propyl-1H-benzo[d]imidazol-4-yl)-6-(azetidin-3-ylsulfonyl)-2-(2H-tetrazol-5-yl)benzenesulfonamide]	1.563	9.92	9.52	12.5	8.00				9.39	3.125	1.563	0.3906	
NCCS(=O)(=O)c1ccc(C2CCNc3ccccc32)c(-c2nn[nH]n2)c1S(N)(=O)=O (stereo not drawn) [Example 272, 6-(2-aminoethylsulfonyl)-3-(1,2,3,4-tetrahydroquinolin-4-yl)-2-(2H-tetrazol-5-yl)benzenesulfonamide]	1.563		8.22	100	63.98				9.19	6.25	6.25	3.125	8.73
Nc1ccc(-c2ccc(S(=O)(=O)C3CCNCC3)c(S(N)(=O)=O)c2-c2nn[nH]n2)cn1 [Example 24, 3-(6-aminopyridin-3-yl)-6-(piperidin-4-ylsulfonyl)-2-(2H-tetrazol-5-yl)benzenesulfonamide]	1.563	9.42	9.28	3.125	2.00	3.125	3.125	3.125	9.66				
NS(=O)(=O)c1c(S(=O)(=O)C2CNC2)ccc(-c2cccc3nccn23)c1-c1nnn[nH]1 [Example 66, 6-(Azetidin-3-ylsulfonyl)-3-(imidazo[1,2-a]pyridin-5-yl)-2-(1H-tetrazol-5-yl)benzenesulfonamide]	6.25	9.23	8.01	50	8.00	12.5	6.25	3.125	9.24				
